# Measurements reported in patent US20240239774A1, “SOLUBLE ADENYLYL CYCLASE (SAC) INHIBITORS AND USES THEREOF” (Cornell University, priority 2021, published 2024).
# Tested on: mouse sperm
# Assay: Acrosome reaction assay
# Type: cell-based
# Conditions: 5 μM Example 1 or 10 nM Example 133; capacitating media 90 minutes
# Experimental: Zonae pellucidae were isolated from female mice superovulated by intraperitoneal injection of 10 I.U. […] 3 days before the experiment. 14 hours before oocyte isolation, mice were injected with 10 I.U. […]. Oviducts were collected following cervical dislocation. Cumulus-enclosed oocytes were separated from the oviducts and placed into TYH buffer containing 300 μg/ml hyaluronidase. After 15 minutes, cumulus-free oocytes were transferred into fresh buffer and washed twice. Zonae pellucidae and oocytes were separated by shear forces generated by expulsion from […] pasteur pipettes. Zona pellucidae were counted, transferred into fresh buffer and heat-solubilized by incubation for 10 minutes at 65° C.
# For analysis of acrosomal exocytosis, 100 μl of 1×10^7 sperm/ml were capacitated for 90 minutes in TYH buffer supplemented with 3 mg/ml BSA and 25 mM NaHCO3 (mouse sperm) or HTF buffer supplemented with […] HSA and 25 mM NaHCO3 (human sperm). sAC inhibitors were added with capacitating buffer; 0.1% DMSO was used as vehicle control. […] After curing, slides were analyzed using a Zeiss LSM 880 Laser Scanning Confocal Microscope; images were captured with two photomultiplier and one Gallium Arsenide Phosphide detector using ZEN Imaging software. For each condition, at least 600 cells were analyzed using ImageJ 1.52.
smiles,measurement,value
Nc1nc(Cl)cc(-c2nn(C(F)F)cc2Cc2ccccc2OCCN2CCOC[C@H]2CO)n1 [Example 133],blocking acrosome reaction induced by zona pellucidae,more potent than Example 1
